Patent US9511091B2, “Rare earth metal compounds, methods of making, and methods of using the same” (Spectrum Pharmaceuticals, Inc., priority 2002, dated 2016)

Tests used:
[1] = binding efficiency test, spiked water; details: 0.50 g in 30.0 ml spike solution, approximately 1 mg/l of each element, 18 hrs, room temperature
Procedure: Tests were run to determine the binding efficiency of eight different compounds for twenty-four different elements.
The main objective of the tests was to investigate the efficiency at which the compounds bind arsenic and selenium, in view of their use in removing those elements from drinking water. Twenty-one different anions were also included to explore further possibilities. The tests were performed as follows:
The compounds given in Table 6 were added to water and a spike and were vigorously shaken at room temperature for 18 hrs. The samples were filtered and the filtrate analyzed for a suite of elements including Sb, As, Be, Cd, Ca, Cr, Co, Cu, Fe, Pb, Mg, Mn, Mo, Ni, Se, Tl, Ti, V, Zn, Al, Ba, B, Ag, and P.
2. Add standard solutions of the elements given above to make solutions containing approximately 1 mg/l of each element.
1. Weigh 0.50 g of each compound into its own 50 ml centrifuge tube.
2. Add 30.0 ml of the spike solution to each.
3. Cap tightly and shake vigorously for 18 hrs.
4. Filter solution from each centrifuge tube through 0.2 µm syringe filter. Obtain about 6 ml of filtrate.
5. Dilute filtrates 5:10 with 2% HNO3. Final Matrix is 1% HNO3.

[2] = reactivity with respect to phosphate: phosphate removal from pH 3 Na2HPO4/HCl stock solution; format: binding; details: for Initial 1st order rate constant k1: calculated from the experimental points for the first minute of the reaction, pH 3; for Fraction of PO4 remaining after 10 min: pH 3 stock solution, La 3 times the stoichiometric amount
Procedure: A desirable lanthanum carbonate hydroxide is LaCO3OH. […] To determine the reactivity of the lanthanum carbonate hydroxide compound with respect to phosphate, the following procedure was used. A stock solution containing 13.75 g/l of anhydrous Na2HPO4 and 8.5 g/l of HCl is prepared. The stock solution is adjusted to pH 3 by the addition of concentrated HCl. 100 ml of the stock solution is placed in a beaker with a stirring bar. A sample of lanthanum carbonate hydroxide powder is added to the solution. The amount of lanthanum carbonate hydroxide powder is such that the amount of La in suspension is 3 times the stoichiometric amount needed to react completely with the phosphate. Samples of the suspension are taken at intervals, through a filter that separated all solids from the liquid. The liquid sample is analyzed for phosphorous.
(§1) To determine the reactivity of the lanthanum compound with respect to phosphate, the following test was conducted. A stock solution containing 13.75 g/l of anhydrous Na2HPO4 and 8.5 g/l of HCl was prepared. The stock solution was adjusted to pH 3 by the addition of concentrated HCl. An amount of 100 ml of the stock solution was placed in a beaker with a stirring bar. The lanthanum oxychloride from above was added to the solution to form a suspension. The amount of lanthanum oxychloride was such that the amount of La in suspension was 3 times the stoichiometric amount needed to react completely with the phosphate. Samples of the suspension were taken at time intervals, through a filter that separated all solids from the liquid. The liquid sample was analyzed for phosphorous.
as §1, with “Lanthanum carbonate hydroxide powder made as described” for “The lanthanum oxychloride from”, “solution.” for “solution to form a suspension.”, “carbonate hydroxide powder” for “oxychloride”, “intervals” for “intervals,”
(§2) To determine the reactivity of this lanthanum compound with respect to phosphate, the following test was conducted. A stock solution containing 13.75 g/l of anhydrous Na2HPO4 and 8.5 g/l of HCl was prepared. The stock solution was adjusted to pH 3 by the addition of concentrated HCl. An amount of 100 ml of the stock solution was placed in a beaker with a stirring bar. Anhydrous lanthanum oxycarbonate made as described above, was added to the solution. The amount of anhydrous lanthanum oxycarbonate was such that the amount of La in suspension was 3 times the stoichiometric amount needed to react completely with the phosphate. Samples of the suspension were taken at intervals, through a filter that separated all solids from the liquid. The liquid sample was analyzed for phosphorous.
as §2, with “reactivity of the lanthanum compound” for “reactivity of this lanthanum compound”, “stirring bar. La2CO5 powder, made as” for “stirring bar. Anhydrous lanthanum oxycarbonate made as”, “amount of lanthanum oxycarbonate” for “amount of anhydrous lanthanum oxycarbonate”, “taken at intervals through a” for “taken at intervals, through a”

[3] = specific surface area by the BET method; format: physicochemical
Procedure: For each sample, the surface area measured by the BET method and the fraction of phosphate remaining after 10 min of reaction have been tabulated. […] The rate constant k1 is defined by the following equation: d[PO4]/dt=−k1[PO4]
An aqueous HCl solution having a volume of 334.75 ml and containing LaCl3 (lanthanum chloride) at a concentration of 29.2 wt % as La2O3 was added to a 4 liter beaker and heated to 80° C. with stirring. The initial pH of the LaCl3 solution was 2.2. Two hundred and sixty five ml of an aqueous solution containing 63.59 g of sodium carbonate (Na2CO3) was metered into the heated beaker using a small pump at a steady flow rate for 2 hours. Using a Buchner filtering apparatus fitted with filter paper the filtrate was separated from the white powder product. The filter cake was mixed four times, each with 2 liters of distilled water and filtered to wash away the NaCl formed during the reaction. The washed filter cake was placed into a convection oven set at 105° C. for 2 hours or until a stable weight was observed. […] The surface area of the product was determined by the BET method. The test was repeated 3 times and slightly different surface areas and different reaction rates were obtained as shown in Table 1.

[4] = after 10 min, pH 3, La 3 times the stoichiometric amount

Compound: O.O.O.O.O=C([O-])[O-].O=C([O-])[O-].O=C([O-])[O-].[La+3].[La+3] [La2(CO3)3•4H2O, reference compound]
- % Analyte Removed As [1]: 25%
- % Analyte Removed Be [1]: 41%
- % Analyte Removed Ca [1]: 28%
- % Analyte Removed Cd [1]: 37%
- % Analyte Removed Co [1]: 20%
- % Analyte Removed Cr [1]: 94%
- % Analyte Removed Cu [1]: 0%
- % Analyte Removed Fe [1]: 56%
- % Analyte Removed Mg [1]: 0%
- % Analyte Removed Mn [1]: 20%
- % Analyte Removed Pb [1]: 90%
- % Analyte Removed Sb [1]: 84%
- % Analyte Removed As ([1]; listed as Commercial lanthanum carbonate): less effective
- rate of removal of phosphate compared with LaOCl of Example 1 ([2]; FIG. 14, pH 3): faster at the beginning but slower after about 3 minutes
- capacity of phosphate removal (PO4 removed/g of La compound) [2, 4]: 45 mg PO4/g
- phosphate in solution removed [2, 4]: 38%

Compound: [La+3].[La+3].[O-2].[O-2].[O-2] [La2O3]
- % Analyte Removed As [1]: 85%
- % Analyte Removed Be [1]: 97%
- % Analyte Removed Ca [1]: 21%
- % Analyte Removed Cd [1]: 95%
- % Analyte Removed Co [1]: 69%
- % Analyte Removed Cr [1]: 100%
- % Analyte Removed Cu [1]: 89%
- % Analyte Removed Fe [1]: 92%
- % Analyte Removed Mg [1]: 0%
- % Analyte Removed Mn [1]: 94%
- % Analyte Removed Pb [1]: 92%
- % Analyte Removed Sb [1]: 89%

Compound: [O]=[La][Cl] [LaOCl, lanthanum oxychloride]
- % Analyte Removed As [1]: 76%
- % Analyte Removed Be [1]: 89%
- % Analyte Removed Ca [1]: 0%
- % Analyte Removed Cd [1]: 46%
- % Analyte Removed Co [1]: 28%
- % Analyte Removed Cr [1]: 100%
- % Analyte Removed Cu [1]: 88%
- % Analyte Removed Fe [1]: 100%
- % Analyte Removed Mg [1]: 0%
- % Analyte Removed Mn [1]: 28%
- % Analyte Removed Pb [1]: 99%
- % Analyte Removed Sb [1]: 86%
- relationship between the amount of phosphate bound or absorbed and time ([2]; compared with commercial hydrated lanthanum carbonates): closer to linear

Compound: O=C([O-])[O-].[La+3].[OH-] [Sample 1, LaCO3OH]
- Initial 1st order rate constant k1 [2]: 0.949 min⁻¹
- Fraction of PO4 remaining after 10 min [2]: 0.130
- BET surface area [3]: 41.3 m^2/g

Compound: O=C([O-])[O-].[La+3].[OH-] [Sample 2, LaCO3OH]
- Initial 1st order rate constant k1 [2]: 0.929 min⁻¹
- Fraction of PO4 remaining after 10 min [2]: 0.153
- BET surface area [3]: 35.9 m^2/g

Compound: O=C([O-])[O-].[La+3].[OH-] [Sample 3, LaCO3OH]
- Initial 1st order rate constant k1 [2]: 0.837 min⁻¹
- Fraction of PO4 remaining after 10 min [2]: 0.171
- BET surface area [3]: 38.8 m^2/g

Compound: O=C([O-])[O-].[La+3].[La+3].[O-2].[O-2] [Sample 4, La2CO5]
- Initial 1st order rate constant k1 [2]: 0.545 min⁻¹
- Fraction of PO4 remaining after 10 min [2]: 0.275
- BET surface area [3]: 25.6 m^2/g

Compound: O=C([O-])[O-].[La+3].[La+3].[O-2].[O-2] [Sample 5, La2O2CO3]
- Initial 1st order rate constant k1 [2]: 0.483 min⁻¹
- Fraction of PO4 remaining after 10 min [2]: 0.278
- BET surface area [3]: 18 m^2/g

Compound: O=C([O-])[O-].[La+3].[La+3].[O-2].[O-2] [Sample 6, La2CO5]
- Initial 1st order rate constant k1 [2]: 0.391 min⁻¹
- Fraction of PO4 remaining after 10 min [2]: 0.308
- BET surface area [3]: 18.8 m^2/g

Compound: O=C([O-])[O-].[La+3].[La+3].[O-2].[O-2] [Sample 7, La2O2CO3]
- Initial 1st order rate constant k1 [2]: 0.36 min⁻¹
- Fraction of PO4 remaining after 10 min [2]: 0.327
- BET surface area [3]: 16.5 m^2/g

Compound: O=C([O-])[O-].[La+3].[La+3].[O-2].[O-2] [Sample 8, La2CO5]
- Initial 1st order rate constant k1 [2]: 0.434 min⁻¹
- Fraction of PO4 remaining after 10 min [2]: 0.483
- BET surface area [3]: 11.9 m^2/g

Compound: O=C([O-])[O-].O=C([O-])[O-].[Ti+4] [Ti(CO3)2, Ti carbonate]
- % Analyte Removed As [1]: 93%
- % Analyte Removed Be [1]: 100%
- % Analyte Removed Ca [1]: 99%
- % Analyte Removed Cd [1]: 100%
- % Analyte Removed Co [1]: 99%
- % Analyte Removed Cr [1]: 99%
- % Analyte Removed Cu [1]: 98%
- % Analyte Removed Fe [1]: 100%
- % Analyte Removed Mg [1]: 79%
- % Analyte Removed Mn [1]: 100%
- % Analyte Removed Pb [1]: 98%
- % Analyte Removed Sb [1]: 96%
- % Analyte Removed As ([1]; listed as compound 5): most efficient

Compound: [O]=[Ti]=[O] [TiO2]
- % Analyte Removed As [1]: 93%
- % Analyte Removed Be [1]: 8%
- % Analyte Removed Ca [1]: 0%
- % Analyte Removed Cd [1]: 4%
- % Analyte Removed Co [1]: 0%
- % Analyte Removed Cr [1]: 6%
- % Analyte Removed Cu [1]: 11%
- % Analyte Removed Fe [1]: 49%
- % Analyte Removed Mg [1]: 0%
- % Analyte Removed Mn [1]: 1%
- % Analyte Removed Pb [1]: 97%
- % Analyte Removed Sb [1]: 96%
- % Analyte Removed As ([1]; listed as compound 6): most efficient
